In patent US10577322B2, “5-methoxytryptophan and its derivatives and uses thereof” (National Health Research Institutes, priority 2015, dated 2020):

Key:
lung tissues = assay: Lung histology (H&E) in LPS-treated mice; type: in vivo; conditions: LPS 60 mg/kg
Experimental: For histological studies, the lungs were perfused with saline, and immersed in formalin for 24 h. Tissue blocks were placed in formalin, dehydrated in a graded series of ethanol, embedded in paraffin, cut into 3 μm-thick serial sections, and stained with haematoxylin and eosin for detecting inflammatory cells, alveolar congestion and alveolar septal wall thickness and interstitial edema.
In addition, paraffin-embedded sections were prepared from lungs of mice injected with 60 mg/kg LPS with or without saline or 5-MTP for the indicated time. Lung tissues were stained with hematoxylin and eosin and examined under light microscopy. The results are shown in FIG. 5C, in which scale bars represent 100 μm.

caspase-3 = assay: Caspase-3 activity in splenocytes (fluorogenic substrate); type: in vivo, mice; conditions: 5-MTP 100 mg/kg, 16 h
Experimental: Caspase-3 activity was determined by the cleavage of the fluorometric substrate z-DEVD-AMC (Upstate Biotechnology) as previously described (Kuo, C. C., Liang, C. M., Lai, C. Y. & Liang, S. M. Involvement of heat shock protein(Hsp)90 beta but not Hsp90 alpha in antiapoptotic effect of CpG-B oligodeoxynucleotide. J Immunol 178, 6100-6108 (2007)).
In addition, caspase-3 activity in splenocytes of mice treated with saline, LPS or LPS plus 5-MTP (100 mg/kg) for 16 h was measured by fluorogenic substrate as described above. The results are shown in FIG. 9B, in which the error bare denotes mean±SD (n=6 mice/group).

NF-κB p65 = assay: Phospho-p65 level in lung tissues (ELISA kit); type: in vivo, mice; conditions: 4 and 8 h after LPS, 5-MTP 23.4 mg/kg
Experimental: Since NF-κB activation plays a critical role in the initiation and progression of systemic inflammation and septic pathology, the effect of 5-MTP on NF-κB activation in lung tissue was evaluated. Phospho-p65 level in lung tissues was determined by an ELISA kit at 4 and 8 h after LPS infusion with or without 5-MTP (23.4 mg/kg) (n=6 mice/group).

COc1ccc2[nH]cc(C[C@H](N)C(=O)O)c2c1 [5-MTP, 5-methoxytryptophan]
LPS-induced lung pathological changes (leukocyte infiltration, septal wall thickening, edema, congestion) (lung tissues): significantly alleviated
LPS-induced caspase-3 cleavage in spleen cells (caspase-3): prevented
phosphorylation level of NF-κB p65 in lung tissues (NF-κB p65): reduced by 5-MTP
